# ± gives the standard deviation of the averaged measurements.
# How the values were obtained:
# [1] = compound: C=CC(=O)Nc1cc2c(Nc3ccc(F)c(Cl)c3)ncnc2cc1OCCCN1CCOCC1 [CANERTINIB]; assay: surviving fraction relative to DMSO-only wells; higher = less growth inhibition; details: exposure time: 5 days
# In short: (§1)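 Log-phase tumour cell lines were seeded at 250–500 cells per well in 384-well plates. After 24 hours they were exposed continuously for five days to inhibitors at 0.5, 1, 5, 10, 50, 100, 500 and 1000 nM. Viability was read by CellTiter-Glo luminescence after 10 minutes at room temperature, and surviving fraction is luminescence normalised to the median of DMSO-only wells. Each line was screened three times and kept only if replicate Pearson r >0.7 and median Z' >0.3.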
# [2] = compound: CC[C@@H]1C(=O)N(C)c2cnc(Nc3ccc(C(=O)NC4CCN(C)CC4)cc3OC)nc2N1C1CCCC1 [BI-2536]; assay: as above; details: exposure time: 5 days
# In short: as §1
test system,measurement,setting,value
HU09 BONE,surviving fraction,[1]; 0.5 nM,0.807 ± 0.14
same,surviving fraction,[1]; 1 nM,0.891 ± 0.066
same,surviving fraction,[1]; 5 nM,0.977 ± 0.058
same,surviving fraction,[1]; 10 nM,0.904 ± 0.079
same,surviving fraction,[1]; 50 nM,1.02 ± 0.086
same,surviving fraction,[1]; 100 nM,1.02 ± 0.081
same,surviving fraction,[1]; 500 nM,0.766 ± 0.033
same,surviving fraction,[1]; 1000 nM,0.478 ± 0.027
same,surviving fraction,[2]; 0.5 nM,1.03 ± 0.049
same,surviving fraction,[2]; 1 nM,0.939 ± 0.14
same,surviving fraction,[2]; 5 nM,0.066 ± 0.0044
same,surviving fraction,[2]; 10 nM,0.0487 ± 0.0047
same,surviving fraction,[2]; 50 nM,0.086 ± 0.033
same,surviving fraction,[2]; 100 nM,0.076 ± 0.017
same,surviving fraction,[2]; 500 nM,0.0617 ± 0.0081
same,surviving fraction,[2]; 1000 nM,0.0403 ± 0.0032
BT549 BREAST,surviving fraction,[1]; 0.5 nM,0.752 ± 0.037
same,surviving fraction,[1]; 1 nM,0.886 ± 0.18
same,surviving fraction,[1]; 5 nM,0.832 ± 0.08
same,surviving fraction,[1]; 10 nM,0.808 ± 0.042
same,surviving fraction,[1]; 50 nM,0.937 ± 0.18
same,surviving fraction,[1]; 100 nM,1.08 ± 0.052
same,surviving fraction,[1]; 500 nM,0.811 ± 0.072
same,surviving fraction,[1]; 1000 nM,0.47 ± 0.058
same,surviving fraction,[2]; 0.5 nM,0.905 ± 0.14
same,surviving fraction,[2]; 1 nM,0.923 ± 0.052
same,surviving fraction,[2]; 5 nM,0.229 ± 0.021
same,surviving fraction,[2]; 10 nM,0.132 ± 0.038
same,surviving fraction,[2]; 50 nM,0.0863 ± 0.0081
same,surviving fraction,[2]; 100 nM,0.0867 ± 0.011
same,surviving fraction,[2]; 500 nM,0.0667 ± 0.011
same,surviving fraction,[2]; 1000 nM,0.0373 ± 0.0093
HOS BONE,surviving fraction,[1]; 0.5 nM,0.955 ± 0.029
same,surviving fraction,[1]; 1 nM,0.923 ± 0.011
same,surviving fraction,[1]; 5 nM,0.932 ± 0.031
same,surviving fraction,[1]; 10 nM,0.915 ± 0.019
same,surviving fraction,[1]; 50 nM,1.01 ± 0.012
same,surviving fraction,[1]; 100 nM,1.01 ± 0.026
same,surviving fraction,[1]; 500 nM,0.935 ± 0.011
same,surviving fraction,[1]; 1000 nM,0.914 ± 0.014
same,surviving fraction,[2]; 0.5 nM,1.02 ± 0.015
same,surviving fraction,[2]; 1 nM,0.979 ± 0.008
same,surviving fraction,[2]; 5 nM,0.203 ± 0.044
same,surviving fraction,[2]; 10 nM,0.031 ± 0.0027
same,surviving fraction,[2]; 50 nM,0.0337 ± 0.0029
same,surviving fraction,[2]; 100 nM,0.023 ± 0.001
same,surviving fraction,[2]; 500 nM,0.018 ± 0.001
same,surviving fraction,[2]; 1000 nM,0.0207 ± 0.00058
ASKA SYNOVIAL,surviving fraction,[1]; 0.5 nM,0.958 ± 0.03
same,surviving fraction,[1]; 1 nM,0.93 ± 0.014
same,surviving fraction,[1]; 5 nM,1.04 ± 0.024
same,surviving fraction,[1]; 10 nM,0.917 ± 0.062
same,surviving fraction,[1]; 50 nM,1.16 ± 0.077
same,surviving fraction,[1]; 100 nM,1.09 ± 0.059
same,surviving fraction,[1]; 500 nM,0.933 ± 0.1
same,surviving fraction,[1]; 1000 nM,0.721 ± 0.047
same,surviving fraction,[2]; 0.5 nM,0.962 ± 0.057
same,surviving fraction,[2]; 1 nM,0.919 ± 0.066
same,surviving fraction,[2]; 5 nM,0.228 ± 0.012
same,surviving fraction,[2]; 10 nM,0.231 ± 0.0032
same,surviving fraction,[2]; 50 nM,0.256 ± 0.012
same,surviving fraction,[2]; 100 nM,0.219 ± 0.012
same,surviving fraction,[2]; 500 nM,0.185 ± 0.0081
same,surviving fraction,[2]; 1000 nM,0.238 ± 0.011
SCC90 HEADNECK,surviving fraction,[1]; 0.5 nM,0.781 ± 0.13
same,surviving fraction,[1]; 1 nM,0.793 ± 0.056
same,surviving fraction,[1]; 5 nM,0.787 ± 0.018
same,surviving fraction,[1]; 10 nM,0.737 ± 0.064
same,surviving fraction,[1]; 50 nM,0.656 ± 0.075
same,surviving fraction,[1]; 100 nM,0.564 ± 0.065
same,surviving fraction,[1]; 500 nM,0.428 ± 0.021
same,surviving fraction,[1]; 1000 nM,0.335 ± 0.051
same,surviving fraction,[2]; 0.5 nM,0.939 ± 0.12
same,surviving fraction,[2]; 1 nM,0.461 ± 0.057
same,surviving fraction,[2]; 5 nM,0.075 ± 0.0044
same,surviving fraction,[2]; 10 nM,0.0887 ± 0.0087
same,surviving fraction,[2]; 50 nM,0.148 ± 0.007
same,surviving fraction,[2]; 100 nM,0.198 ± 0.022
same,surviving fraction,[2]; 500 nM,0.217 ± 0.036
same,surviving fraction,[2]; 1000 nM,0.138 ± 0.011
SKBR3 BREAST,surviving fraction,[1]; 0.5 nM,0.831 ± 0.019
same,surviving fraction,[1]; 1 nM,0.79 ± 0.017
same,surviving fraction,[1]; 5 nM,0.68 ± 0.051
same,surviving fraction,[1]; 10 nM,0.6073 ± 0.0035
same,surviving fraction,[1]; 50 nM,0.48 ± 0.025
same,surviving fraction,[1]; 100 nM,0.4 ± 0.024
same,surviving fraction,[1]; 500 nM,0.224 ± 0.0067
same,surviving fraction,[1]; 1000 nM,0.176 ± 0.0098
same,surviving fraction,[2]; 0.5 nM,0.914 ± 0.12
same,surviving fraction,[2]; 1 nM,0.363 ± 0.043
same,surviving fraction,[2]; 5 nM,0.158 ± 0.026
same,surviving fraction,[2]; 10 nM,0.189 ± 0.02
same,surviving fraction,[2]; 50 nM,0.255 ± 0.063
same,surviving fraction,[2]; 100 nM,0.356 ± 0.045
same,surviving fraction,[2]; 500 nM,0.321 ± 0.018
same,surviving fraction,[2]; 1000 nM,0.301 ± 0.025
C33A CERVIX,surviving fraction,[1]; 0.5 nM,1.08 ± 0.039
same,surviving fraction,[1]; 1 nM,1 ± 0.057
same,surviving fraction,[1]; 5 nM,1.37 ± 0.12
same,surviving fraction,[1]; 10 nM,1.04 ± 0.11
same,surviving fraction,[1]; 50 nM,1.1 ± 0.015
same,surviving fraction,[1]; 100 nM,0.84 ± 0.025
same,surviving fraction,[1]; 500 nM,0.578 ± 0.044
same,surviving fraction,[1]; 1000 nM,0.349 ± 0.006
same,surviving fraction,[2]; 0.5 nM,1.12 ± 0.021
same,surviving fraction,[2]; 1 nM,1.13 ± 0.085
same,surviving fraction,[2]; 5 nM,0.266 ± 0.052
same,surviving fraction,[2]; 10 nM,0.073 ± 0.011
same,surviving fraction,[2]; 50 nM,0.0473 ± 0.0068
same,surviving fraction,[2]; 100 nM,0.036 ± 0.007
same,surviving fraction,[2]; 500 nM,0.0303 ± 0.01
same,surviving fraction,[2]; 1000 nM,0.032 ± 0.015
SYO1 SYNOVIAL,surviving fraction,[1]; 0.5 nM,0.836 ± 0.061
same,surviving fraction,[1]; 1 nM,0.791 ± 0.045
same,surviving fraction,[1]; 5 nM,0.793 ± 0.027
same,surviving fraction,[1]; 10 nM,0.784 ± 0.029
same,surviving fraction,[1]; 50 nM,0.86 ± 0.029
same,surviving fraction,[1]; 100 nM,0.871 ± 0.038
same,surviving fraction,[1]; 500 nM,0.666 ± 0.019
same,surviving fraction,[1]; 1000 nM,0.498 ± 0.022
same,surviving fraction,[2]; 0.5 nM,1.02 ± 0.015
same,surviving fraction,[2]; 1 nM,0.884 ± 0.045
same,surviving fraction,[2]; 5 nM,0.108 ± 0.036
same,surviving fraction,[2]; 10 nM,0.0738 ± 0.015
same,surviving fraction,[2]; 50 nM,0.0606 ± 0.0062
same,surviving fraction,[2]; 100 nM,0.0441 ± 0.0071
same,surviving fraction,[2]; 500 nM,0.0205 ± 0.0005
same,surviving fraction,[2]; 1000 nM,0.0188 ± 0.0014
YAMATO SYNOVIAL,surviving fraction,[1]; 0.5 nM,0.878 ± 0.19
same,surviving fraction,[1]; 1 nM,0.857 ± 0.088
same,surviving fraction,[1]; 5 nM,0.909 ± 0.065
same,surviving fraction,[1]; 10 nM,0.938 ± 0.091
same,surviving fraction,[1]; 50 nM,1.27 ± 0.1
same,surviving fraction,[1]; 100 nM,1.28 ± 0.067
same,surviving fraction,[1]; 500 nM,1.06 ± 0.083
same,surviving fraction,[1]; 1000 nM,1.1 ± 0.074
same,surviving fraction,[2]; 0.5 nM,1.05 ± 0.061
same,surviving fraction,[2]; 1 nM,0.888 ± 0.05
same,surviving fraction,[2]; 5 nM,0.345 ± 0.0062
same,surviving fraction,[2]; 10 nM,0.315 ± 0.0095
same,surviving fraction,[2]; 50 nM,0.324 ± 0.013
same,surviving fraction,[2]; 100 nM,0.256 ± 0.014
same,surviving fraction,[2]; 500 nM,0.279 ± 0.018
same,surviving fraction,[2]; 1000 nM,0.336 ± 0.027
HT1080 SOFT TISSUE,surviving fraction,[1]; 0.5 nM,1.02 ± 0.015
same,surviving fraction,[1]; 1 nM,1.05 ± 0.03
same,surviving fraction,[1]; 5 nM,0.9963 ± 0.0099
same,surviving fraction,[1]; 10 nM,0.997 ± 0.0076
same,surviving fraction,[1]; 50 nM,1.019 ± 0.0087
same,surviving fraction,[1]; 100 nM,0.987 ± 0.031
same,surviving fraction,[1]; 500 nM,0.982 ± 0.058
same,surviving fraction,[1]; 1000 nM,0.97 ± 0.038
same,surviving fraction,[2]; 0.5 nM,1.05 ± 0.027
same,surviving fraction,[2]; 1 nM,1.067 ± 0.01
same,surviving fraction,[2]; 5 nM,0.9357 ± 0.0021
same,surviving fraction,[2]; 10 nM,0.087 ± 0.0056
same,surviving fraction,[2]; 50 nM,0.0513 ± 0.0051
same,surviving fraction,[2]; 100 nM,0.051 ± 0.0035
same,surviving fraction,[2]; 500 nM,0.077 ± 0.0046
same,surviving fraction,[2]; 1000 nM,0.0823 ± 0.0095
